# Reference: patent publication US9346786B2, “Pyrrolidine compounds” (Hoffmann-La Roche Inc., priority 2009, dated 2016)
# Where two headings read alike, the source gives them in different places.
# Target: recombinant human NK3 receptor (Homo sapiens (Human), UniProt P29371)
# Assay: biochemical
# Format: binding
# Procedure: [^3H]SR142801 Competition Binding Assay
# hNK3 receptor binding experiment were performed using [^3H]SR142801 (Catalog No. TRK1035, specific activity: 74.0 Ci/mmol, Amersham, GE Healthcare UK limited, Buckinghamshire, UK) and membrane isolated from HEK293 cells transiently expressing recombinant human NK3 receptor. After thawing, the membrane homogenates were centrifuged at 48,000×g for […] at 4° C., the pellets were resuspended in the 50 mM Tris-HCl, 4 mM MnCl2, 1 μM phosphoramidon, 0.1% BSA binding buffer at pH 7.4 to a final assay concentration of 5 μg protein/well. For inhibition experiments, membranes were incubated with [^3H]SR142801 at a concentration equal to KD value of radioligand and 10 concentrations of the inhibitory compound (0.0003-10 μM) (in a total reaction volume of 500 μl) for 75 min at room temperature (RT). At the end of the incubation, membranes were filtered onto unitfilter (96-well white microplate with bonded GF/C filter preincubated 1 h in 0.3% PEI+0.3% BSA, Packard BioScience, Meriden, Conn.) with a Filtermate 196 harvester (Packard BioScience) and washed 4 times with ice-cold 50 mM Tris-HCl, pH 7.4 buffer. Nonspecific binding was measured in the presence of 10 μM SB222200 for both radioligands. The radioactivity on the filter was counted (5 min) on a Packard Top-count microplate scintillation counter with quenching correction after addition of 45 μl of microscint 40 (Canberra Packard S.A., Zürich, Switzerland) and shaking for 1 h. Inhibition curves were fitted according to the Hill equation: y=100/(1+(x/IC50)^nH), where nH=slope factor using Excel-fit 4 software (Microsoft). IC50 values were derived from the inhibition curve and the affinity constant (Ki) values were calculated using the Cheng-Prussoff equation Ki=IC50/(1+[L]/KD) where [L] is the concentration of radioligand and KD is its dissociation constant at the receptor, derived from the saturation isotherm. All experiments were performed in duplicate and the mean±standard error (SEM) of the individual Ki values was calculated.
# [1] = [3H]SR142801, membranes of HEK293 cells transiently expressing recombinant human NK3 receptor, read-out: Data Ki (hNK-3 receptor affinity)
# [2] = read-out: Data Ki (hNK-3 receptor affinity)
# Sequence of recombinant human NK3 receptor (P29371 whole entry): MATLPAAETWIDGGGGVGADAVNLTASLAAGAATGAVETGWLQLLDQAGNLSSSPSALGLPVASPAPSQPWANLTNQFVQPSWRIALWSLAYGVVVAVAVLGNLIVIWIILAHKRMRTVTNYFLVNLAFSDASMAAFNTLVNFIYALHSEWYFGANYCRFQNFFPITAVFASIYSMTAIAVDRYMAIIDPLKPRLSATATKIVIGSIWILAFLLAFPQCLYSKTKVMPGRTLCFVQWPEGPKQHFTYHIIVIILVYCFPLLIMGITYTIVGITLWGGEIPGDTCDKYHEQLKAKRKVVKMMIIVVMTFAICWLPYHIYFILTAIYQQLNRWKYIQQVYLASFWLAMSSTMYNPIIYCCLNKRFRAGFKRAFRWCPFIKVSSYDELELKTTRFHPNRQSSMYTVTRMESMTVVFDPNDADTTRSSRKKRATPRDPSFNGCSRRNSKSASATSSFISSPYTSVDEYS
Structure (SMILES),Ki [1],Ki [2],also measured
"CCN(C(=O)Oc1ccc(F)cc1)[C@@H]1CN(C(=O)C2CCN(C(=O)C3(C)CC3)CC2)C[C@H]1c1ccc(Cl)c(Cl)c1 (racemic) [Example 1, rac-{(3S,4R)-4-(3,4-Dichloro-phenyl)-1-[1-(1-methyl-cyclopropanecarbonyl)-piperidine-4-carbonyl]-pyrrolidin-3-yl}-ethyl-carbamic acid 4-fluoro-phenyl ester]",,,Ki: 0.001 µM
"CC(C)N(C(=O)Oc1ccc(F)cc1)[C@@H]1CN(C(=O)C2CCN(C(=O)C3(C)CC3)CC2)C[C@H]1c1ccc(Cl)c(Cl)c1 (racemic) [Example 2, rac-{(3S,4R)-4-(3,4-Dichloro-phenyl)-1-[1-(1-methyl-cyclopropanecarbonyl)-piperidine-4-carbonyl]-pyrrolidin-3-yl}-isopropyl-carbamic acid 4-fluoro-phenyl ester]",0.046 µM,,
"CC(C)CN(C(=O)Oc1ccc(F)cc1)[C@@H]1CN(C(=O)C2CCN(C(=O)C3(C)CC3)CC2)C[C@H]1c1ccc(Cl)c(Cl)c1 (racemic) [Example 3, rac-{(3S,4R)-4-(3,4-Dichloro-phenyl)-1-[1-(1-methyl-cyclopropanecarbonyl)-piperidine-4-carbonyl]-pyrrolidin-3-yl}-isobutyl-carbamic acid 4-fluoro-phenyl ester]",0.276 µM,,
"CC1(C(=O)N2CCC(C(=O)N3C[C@@H](N(C(=O)Oc4ccc(F)cc4)C4CC4)[C@H](c4ccc(Cl)c(Cl)c4)C3)CC2)CC1 (racemic) [Example 4, rac-{(3S,4R)-4-(3,4-Dichloro-phenyl)-1-[1-(1-methyl-cyclopropanecarbonyl)-piperidine-4-carbonyl]-pyrrolidin-3-yl}-cyclopropyl-carbamic acid 4-fluoro-phenyl ester]",0.01 µM,,
"CCN(C(=O)Oc1ccc(F)cc1)[C@@H]1CN(C(=O)C2CCN(C(=O)C3(C)CC3)CC2)C[C@H]1c1ccc(Cl)c(Cl)c1 [Example 5, {(3S,4R)-4-(3,4-Dichloro-phenyl)-1-[1-(1-methyl-cyclopropanecarbonyl)-piperidine-4-carbonyl]-pyrrolidin-3-yl}-ethyl-carbamic acid 4-fluoro-phenyl ester]",,0.002 µM,
"CCN(C(=O)Oc1ccc(F)cc1)[C@H]1CN(C(=O)C2CCN(C(=O)C3(C)CC3)CC2)C[C@@H]1c1ccc(Cl)c(Cl)c1 [Example 6, {(3R,4S)-4-(3,4-Dichloro-phenyl)-1-[1-(1-methyl-cyclopropanecarbonyl)-piperidine-4-carbonyl]-pyrrolidin-3-yl}-ethyl-carbamic acid 4-fluoro-phenyl ester]",,0.062 µM,
"CCN(C(=O)Oc1ccc(F)cc1)[C@H]1CN(C(=O)C2CCN(c3ncc(C#N)cn3)CC2)C[C@@H]1c1ccc(Cl)cc1 [Example 7, {(3R,4S)-4-(4-Chloro-phenyl)-1-[1-(5-cyano-pyrimidin-2-yl)-piperidine-4-carbonyl]-pyrrolidin-3-yl}-ethyl-carbamic acid 4-fluoro-phenyl ester]",0.089 µM,,
"CCN(C(=O)Oc1ccc(F)cc1)[C@H]1CN(C(=O)C2CCN(c3ccc(C(C)=O)cn3)CC2)C[C@@H]1c1ccc(Cl)cc1 [Example 8, [(3R,4S)-1-(5′-Acetyl-3,4,5,6-tetrahydro-2H-[1,2′]bipyridinyl-4-carbonyl)-4-(4-chloro-phenyl)-pyrrolidin-3-yl]-ethyl-carbamic acid 4-fluoro-phenyl ester]",0.055 µM,,
"CCN(C(=O)Oc1ccc(F)cc1)[C@H]1CN(C(=O)C2CCN(c3cc(C#N)ccn3)CC2)C[C@@H]1c1ccc(Cl)cc1 [Example 9, [(3R,4S)-4-(4-Chloro-phenyl)-1-(4′-cyano-3,4,5,6-tetrahydro-2H-[1,2′]bipyridinyl-4-carbonyl)-pyrrolidin-3-yl]-ethyl-carbamic acid 4-fluoro-phenyl ester]",,0.138 µM,
"CCN(C(=O)Oc1ccc(F)cc1)[C@H]1CN(C(=O)C2CCN(c3ccc(S(C)(=O)=O)cn3)CC2)C[C@@H]1c1ccc(Cl)cc1 [Example 10, [(3R,4S)-4-(4-Chloro-phenyl)-1-(5′-methanesulfonyl-3,4,5,6-tetrahydro-2H-[1,2′]bipyridinyl-4-carbonyl)-pyrrolidin-3-yl]-ethyl-carbamic acid 4-fluoro-phenyl ester]",0.065 µM,,
"CCN(C(=O)Oc1ccc(F)cc1)[C@H]1CN(C(=O)C2CCN(c3cnc(C#N)cn3)CC2)C[C@@H]1c1ccc(Cl)cc1 [Example 11, {(3R,4S)-4-(4-Chloro-phenyl)-1-[1-(5-cyano-pyrazin-2-yl)-piperidine-4-carbonyl]-pyrrolidin-3-yl}-ethyl-carbamic acid 4-fluoro-phenyl ester]",,0.036 µM,
"CCN(C(=O)Oc1ccc(F)cc1)[C@H]1CN(C(=O)C2CCN(c3ccc(C#N)nn3)CC2)C[C@@H]1c1ccc(Cl)cc1 [Example 12, {(3R,4S)-4-(4-Chloro-phenyl)-1-[1-(6-cyano-pyridazin-3-yl)-piperidine-4-carbonyl]-pyrrolidin-3-yl}-ethyl-carbamic acid 4-fluoro-phenyl ester]",0.023 µM,,
"CCN(C(=O)Oc1ccc(F)cc1)[C@@H]1CN(C(=O)C2CCN(c3ncc(C#N)cn3)CC2)C[C@H]1c1ccc(Cl)cc1 [Example 13, {(3S,4R)-4-(4-Chloro-phenyl)-1-[1-(5-cyano-pyrimidin-2-yl)-piperidine-4-carbonyl]-pyrrolidin-3-yl}-ethyl-carbamic acid 4-fluoro-phenyl ester]",0.008 µM,,
"CCN(C(=O)Oc1ccc(F)cc1)[C@@H]1CN(C(=O)C2CCN(c3ccc(C(C)=O)cn3)CC2)C[C@H]1c1ccc(Cl)cc1 [Example 14, [(3S,4R)-1-(5′-Acetyl-3,4,5,6-tetrahydro-2H-[1,2′]bipyridinyl-4-carbonyl)-4-(4-chloro-phenyl)-pyrrolidin-3-yl]-ethyl-carbamic acid 4-fluoro-phenyl ester]",0.003 µM,,
"CCN(C(=O)Oc1ccc(F)cc1)[C@@H]1CN(C(=O)C2CCN(c3cc(C#N)ccn3)CC2)C[C@H]1c1ccc(Cl)cc1 [Example 15, [(3S,4R)-4-(4-Chloro-phenyl)-1-(4′-cyano-3,4,5,6-tetrahydro-2H-[1,2′]bipyridinyl-4-carbonyl)-pyrrolidin-3-yl]-ethyl-carbamic acid 4-fluoro-phenyl ester]",,0.008 µM,
"CCN(C(=O)Oc1ccc(F)cc1)[C@@H]1CN(C(=O)C2CCN(c3ccc(S(C)(=O)=O)cn3)CC2)C[C@H]1c1ccc(Cl)cc1 [Example 16, [(3S,4R)-4-(4-Chloro-phenyl)-1-(5′-methanesulfonyl-3,4,5,6-tetrahydro-2H-[1,2′]bipyridinyl-4-carbonyl)-pyrrolidin-3-yl]-ethyl-carbamic acid 4-fluoro-phenyl ester]",0.002 µM,,
"CCN(C(=O)Oc1ccc(F)cc1)[C@@H]1CN(C(=O)C2CCN(c3cnc(C#N)cn3)CC2)C[C@H]1c1ccc(Cl)cc1 [Example 17, {(3S,4R)-4-(4-Chloro-phenyl)-1-[1-(5-cyano-pyrazin-2-yl)-piperidine-4-carbonyl]-pyrrolidin-3-yl}-ethyl-carbamic acid 4-fluoro-phenyl ester]",,0.002 µM,
"CCN(C(=O)Oc1ccc(F)cc1)[C@@H]1CN(C(=O)C2CCN(c3ccc(C#N)nn3)CC2)C[C@H]1c1ccc(Cl)cc1 [Example 18, {(3S,4R)-4-(4-Chloro-phenyl)-1-[1-(6-cyano-pyridazin-3-yl)-piperidine-4-carbonyl]-pyrrolidin-3-yl}-ethyl-carbamic acid 4-fluoro-phenyl ester]",0.002 µM,,
"CCN(C(=O)Oc1ccc(F)cc1)[C@H]1CN(C(=O)C2CCN(c3ccc(C(F)(F)F)cn3)CC2)C[C@@H]1c1ccc(Cl)cc1 [Example 19, [(3R,4S)-4-(4-Chloro-phenyl)-1-(5′-trifluoromethyl-3,4,5,6-tetrahydro-2H-[1,2′]bipyridinyl-4-carbonyl)-pyrrolidin-3-yl]-ethyl-carbamic acid 4-fluoro-phenyl ester]",,0.088 µM,
"CCN(C(=O)Oc1ccc(F)cc1)[C@@H]1CN(C(=O)C2CCN(c3ccc(C(F)(F)F)cn3)CC2)C[C@H]1c1ccc(Cl)cc1 [Example 20, [(3S,4R)-4-(4-Chloro-phenyl)-1-(5′-trifluoromethyl-3,4,5,6-tetrahydro-2H-[1,2′]bipyridinyl-4-carbonyl)-pyrrolidin-3-yl]-ethyl-carbamic acid 4-fluoro-phenyl ester]",,0.003 µM,
"CCN(C(=O)Oc1ccc(F)cc1)[C@@H]1CN(C(=O)C2CCN(c3ccc(C#N)cn3)CC2)C[C@H]1c1ccc(Cl)cc1 [Example 21, [(3S,4R)-4-(4-Chloro-phenyl)-1-(5′-cyano-3,4,5,6-tetrahydro-2H-[1,2′]bipyridinyl-4-carbonyl)-pyrrolidin-3-yl]-ethyl-carbamic acid 4-fluoro-phenyl ester]",0.002 µM,,
